In brackets after ≈: the same amount, converted by molar mass. One block for each compound: values may come before it.
Columns and labels:
WI-38 = test: Effective concentration required for cytotoxicity against normal human WI-38 cell line; format: functional, cell-based
[1] = Partition coefficient (logP); format: physicochemical; settings: octanol/water
[2] = Effective concentration required for cytotoxicity against human VA-13 cell line; format: functional, cell-based

logP [1]: 2.6
SMILES: CCOC(=O)c1oc2cc(-c3ccccc3)cc(O)c2c1C
EC50 (WI-38): > 4 µg/mL
EC50 [2]: 0.04 µg/mL (≈ 0.135 µM)

SMILES: CCOC(=O)c1oc2cc(-c3ccc(OCC)cc3)cc(O)c2c1C
EC50 [2]: > 4 µg/mL

SMILES: CCOC(=O)c1oc2cc(-c3cccc(O)c3)cc(O)c2c1C
EC50 [2]: 0.52 µg/mL (≈ 1.66 µM)

SMILES: CCOC(=O)c1oc2cc(-c3ccc(OC)cc3)cc(O)c2c1C
EC50 [2]: > 4 µg/mL

SMILES: CCOC(=O)c1oc2cc(-c3ccccc3OCc3ccccc3)cc(O)c2c1C
EC50 [2]: > 4 µg/mL

SMILES: CCOC(=O)c1oc2cc(-c3ccc(O)cc3)cc(O)c2c1C
EC50 [2]: 0.075 µg/mL (≈ 0.24 µM)

SMILES: CCOC(=O)c1oc2cc(-c3cccc(OC)c3)cc(O)c2c1C
EC50 [2]: 0.08 µg/mL (≈ 0.245 µM)

SMILES: CCOC(=O)c1oc2cc(-c3ccc(Br)cc3)cc(O)c2c1C
EC50 [2]: > 4 µg/mL

SMILES: CCOC(=O)c1oc2cc(-c3ccccc3O)cc(O)c2c1C
EC50 [2]: 0.31 µg/mL (≈ 0.993 µM)

SMILES: CCOC(=O)c1oc2cc(-c3cccc(OCc4ccccc4)c3)cc(O)c2c1C
EC50 [2]: 0.85 µg/mL (≈ 2.11 µM)

logP [1]: 2.2
SMILES: COc1cccnc1C(=O)c1oc2cc(-c3ccccc3)cc(O)c2c1C
EC50 [2]: 0.028 µg/mL (≈ 0.0779 µM)

SMILES: CCOC(=O)c1oc2cc(-c3c(Cl)cccc3Cl)cc(O)c2c1C
EC50 [2]: > 4 µg/mL

SMILES: CCOC(=O)c1oc2cc(-c3ccccc3OC)cc(O)c2c1C
EC50 [2]: 0.38 µg/mL (≈ 1.16 µM)

logP [1]: 2.7
SMILES: COc1ccc(C(=O)c2[nH]c3cc(-c4cccc(F)c4)cc(O)c3c2C)c(OC)c1
EC50 [2]: 0.12 µg/mL (≈ 0.296 µM)

SMILES: CCOC(=O)c1oc2cc(-c3cccc([N+](=O)[O-])c3)cc(O)c2c1C
EC50 [2]: 0.075 µg/mL (≈ 0.22 µM)

SMILES: CCOC(=O)c1oc2cc(-c3ccccc3Cl)cc(O)c2c1C
EC50 [2]: 0.35 µg/mL (≈ 1.06 µM)

SMILES: CCOC(=O)c1oc2cc(-c3cccc(Cl)c3)cc(O)c2c1C
EC50 [2]: 0.08 µg/mL (≈ 0.242 µM)

SMILES: CCOC(=O)c1oc2cc(-c3ccc(OCc4ccccc4)cc3)cc(O)c2c1C
EC50 [2]: > 4 µg/mL

SMILES: CCOC(=O)c1oc2cc(-c3cccc(C(F)(F)F)c3)cc(O)c2c1C
EC50 [2]: 0.7 µg/mL (≈ 1.92 µM)

SMILES: CCOC(=O)c1oc2cc(CC(C)(C)C)cc(O)c2c1C
EC50 [2]: > 4 µg/mL

SMILES: CCOC(=O)c1oc2cc(-c3cccc(Br)c3)cc(O)c2c1C
EC50 [2]: 0.085 µg/mL (≈ 0.227 µM)

logP [1]: 2.7
SMILES: COc1ccc(C(=O)c2oc3cc(-c4cccc(F)c4)cc(O)c3c2C)c(OC)c1
EC50 [2]: 0.03 µg/mL (≈ 0.0738 µM)

SMILES: CCOC(=O)c1oc2cc(-c3cccs3)cc(O)c2c1C
EC50 [2]: 0.16 µg/mL (≈ 0.529 µM)

SMILES: CCOC(=O)c1oc2cc(-c3cccc(C)c3)cc(O)c2c1C
EC50 [2]: 0.08 µg/mL (≈ 0.258 µM)

logP [1]: 2.7
SMILES: CCOC(=O)c1oc2cc(-c3cccc(F)c3)cc(O)c2c1C
EC50 [2]: 0.017 µg/mL (≈ 0.0541 µM)

logP [1]: 2.3
SMILES: COc1cccnc1C(=O)c1oc2cc(-c3cccc(F)c3)cc(O)c2c1C
EC50 [2]: 0.027 µg/mL (≈ 0.0715 µM)

logP [1]: 2.6
SMILES: CCOC(=O)c1[nH]c2cc(-c3ccccc3)cc(O)c2c1C
EC50 [2]: 0.47 µg/mL (≈ 1.59 µM)

logP [1]: 2.6
SMILES: COc1ccc(C(=O)c2oc3cc(-c4ccccc4)cc(O)c3c2C)c(OC)c1
EC50 [2]: 0.04 µg/mL (≈ 0.103 µM)

SMILES: CCOC(=O)c1oc2cc(C3CCCCC3)cc(O)c2c1C
EC50 [2]: > 4 µg/mL

SMILES: CCOC(=O)c1oc2cc(-c3c(F)cccc3Cl)cc(O)c2c1C
EC50 [2]: > 4 µg/mL

SMILES: CCOC(=O)c1oc2cc(-c3ccc(OCCc4ccccc4)cc3)cc(O)c2c1C
EC50 [2]: > 4 µg/mL

SMILES: CCOC(=O)c1oc2cc(-c3ccc(Cl)cc3Cl)cc(O)c2c1C
EC50 [2]: > 4 µg/mL

SMILES: CCOC(=O)c1oc2cc(-c3cccc(N)c3)cc(O)c2c1C
EC50 [2]: 0.09 µg/mL (≈ 0.289 µM)

SMILES: CCOC(=O)c1oc2cc(-c3ccc(C)cc3)cc(O)c2c1C
EC50 [2]: > 4 µg/mL

SMILES: CCOC(=O)c1oc2cc(-c3ccccc3Br)cc(O)c2c1C
EC50 [2]: 0.39 µg/mL (≈ 1.04 µM)

SMILES: CCOC(=O)c1oc2cc(-c3ccco3)cc(O)c2c1C
EC50 [2]: 0.18 µg/mL (≈ 0.629 µM)

SMILES: CCOC(=O)c1oc2cc(-c3ccc(OC)c(OC)c3)cc(O)c2c1C
EC50 [2]: > 4 µg/mL

SMILES: CCOC(=O)c1oc2cc(-c3ccccc3F)cc(O)c2c1C
EC50 [2]: 0.048 µg/mL (≈ 0.153 µM)

SMILES: CCOC(=O)c1oc2cc(-c3ccc(Cl)cc3)cc(O)c2c1C
EC50 [2]: > 4 µg/mL

SMILES: CCOC(=O)c1oc2cc(-c3ccc(F)cc3)cc(O)c2c1C
EC50 [2]: 0.37 µg/mL (≈ 1.18 µM)

Reference: ChEMBL document CHEMBL1137172, “A library synthesis of 4-hydroxy-3-methyl-6-phenylbenzofuran-2-carboxylic acid ethyl ester derivatives as anti-tumor agents” (Bioorg Med Chem Lett, 2004)
